In patent publication EP0719251B1, “BICYCLO (2.2.2) OCTANE DERIVATIVES CHOLECYSTOKININ AND/OR GASTRIN ANTAGONISTS” (JAMES BLACK FOUNDATION LIMITED, priority 1993, dated 1995):

Assays:
CCKA = target: T1, CCKA (Cavia porcellus, UniProt Q63931); assay: CCKA binding assay in guinea-pig pancreas membranes; conditions: [125I]-CCK8(S) 200pM; for Ki: containing 0.375 µM PD134,308, read-out: CCKA pKi (converted); for CCKA pKi: containing 0.375 µM PD134,308
T1 construct: The pancreatata were removed from male guinea-pigs (200-300g; Dunkin Hartley); from tissue; host or cells: pancreas membranes of male Dunkin Hartley guinea-pigs
T1 sequence (Q63931 1-430): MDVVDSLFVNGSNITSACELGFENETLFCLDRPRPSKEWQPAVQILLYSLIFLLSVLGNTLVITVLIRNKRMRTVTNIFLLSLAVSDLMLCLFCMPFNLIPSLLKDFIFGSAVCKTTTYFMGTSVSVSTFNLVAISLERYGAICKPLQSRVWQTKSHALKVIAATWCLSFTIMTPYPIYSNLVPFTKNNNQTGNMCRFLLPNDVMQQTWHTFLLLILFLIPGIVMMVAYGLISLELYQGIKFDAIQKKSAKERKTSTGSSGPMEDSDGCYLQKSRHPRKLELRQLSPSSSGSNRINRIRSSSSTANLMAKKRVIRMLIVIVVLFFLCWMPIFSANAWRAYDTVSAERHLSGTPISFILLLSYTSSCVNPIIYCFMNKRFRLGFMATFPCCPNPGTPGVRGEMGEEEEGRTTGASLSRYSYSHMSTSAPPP
Protocol: The compounds of the examples were also tested in a CCKÅ binding assay as follows:
The pancreatata were removed from male guinea-pigs (200-300g; Dunkin Hartley) and placed in ice-cold HEPES buffer (pH 7.2 @ 21 ± 3° ). The pancreatata were homogenised in 40 ml ice-cold HEPES buffer using a polytron (Brinkmann, PT10, setting 10) 4 x 1 second.
The homogenate was centrifuged at 39,800g for 15 min at 4°. The supernatant was discarded and the pellet re-suspended using a Teflon-in-glass homogeniser in 20 volumes of fresh buffer and recentrifuged as above. The final pellet was re-suspended using a Teflon-in-glass homogeniser to a tissue concentration of 1 mg.ml^-1 (original wet weight), and filtered through 500 µm pore-size Nytex mesh.
The membranes (400µl; containing 0.375 µM PD134,308) are incubated for 150 minutes at 21 ± 3° in a final volume of 0.5ml with HEPES buffer containing [^125I]-CCK8(S) (50µl; 200pM) and competing compound. Total and non-specific binding of [^125I]-CCK8 (S) are defined using 50µl of buffer and 50µl of 100nM L-364,718 respectively. The assay is terminated by rapid filtration through pre-soaked Whatman GF/B filters using a Brandell Cell Harvester. The filters were washed (3 x 3ml) with ice-cold 50mM Tris HCl (pH 7.4 at 4° ) and bound radioactivity is determined by counting (1 min) in a gamma counter.

gastrin = target: T2, gastrin (Rattus norvegicus, UniProt P30553); assay: gastrin antagonist activity in an immature rat stomach assay; conditions: isolated immature rat stomach, cumulative pentagastrin dose-response curves, acid secretion; for Kb: read-out: Gastrin pKB (converted)
T2 construct: The stomach was excised and flushed with ca. 1 ml of unbuffered physiological saline solution; from tissue; host or cells: isolated whole stomach of immature rats (33-50 g, ca. 21 days old)
T2 sequence (P30553 1-452): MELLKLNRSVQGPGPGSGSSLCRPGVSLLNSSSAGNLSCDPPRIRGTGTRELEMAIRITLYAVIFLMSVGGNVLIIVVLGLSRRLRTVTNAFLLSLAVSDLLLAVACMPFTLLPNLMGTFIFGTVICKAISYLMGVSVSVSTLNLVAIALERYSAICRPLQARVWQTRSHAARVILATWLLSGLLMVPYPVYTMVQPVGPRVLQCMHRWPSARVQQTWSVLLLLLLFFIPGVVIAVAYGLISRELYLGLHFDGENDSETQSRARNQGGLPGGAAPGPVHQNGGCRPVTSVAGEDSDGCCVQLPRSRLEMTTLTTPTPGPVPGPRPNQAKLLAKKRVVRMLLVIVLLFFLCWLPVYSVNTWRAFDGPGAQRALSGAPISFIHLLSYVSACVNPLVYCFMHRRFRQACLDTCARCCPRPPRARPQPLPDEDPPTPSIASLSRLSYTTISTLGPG
Protocol: The compounds of the examples were also tested for gastrin antagonist activity in an immature rat stomach assay. The procedure was as follows: The oesophagus of immature rats (33-50 g, ca. 21 days old) was ligated at the level of the cardiac sphincter and the duodenal sphincter was cannulated. The stomach was excised and flushed with ca. 1 ml of unbuffered physiological saline solution. The fundus was punctured and cannulated. A further 4-5 ml of unbuffered solution was flushed through the stomach to ensure the preparation was not leaking. […] The stomach was continuously perfused at a rate of 1 ml min^-1 with unbuffered solution gassed with 100% O2 with the perfusate passing over an internally referenced pH-electrode fixed 12 cm above the stomach. After 120 min of stabilisation the drugs were added directly to the serosal solution in the organ bath and after a further 60 min cumulative pentagastrin dose-response curves were started.

CCKB receptor = target: T3, CCKB receptor (Mus musculus, UniProt P56481); assay: radioligand binding assay at the CCKB receptor in mouse cortical membranes; conditions: [125I]-CCK8S 200pM, 150 min at 21 ± 3°C; for Ki: read-out: CCKB pKi (converted)
T3 construct: The whole brains from male mice (CD1 22-25g; Charles River) were removed; from tissue; host or cells: cerebral cortex membranes of male CD1 mice
T3 sequence (P56481 1-453): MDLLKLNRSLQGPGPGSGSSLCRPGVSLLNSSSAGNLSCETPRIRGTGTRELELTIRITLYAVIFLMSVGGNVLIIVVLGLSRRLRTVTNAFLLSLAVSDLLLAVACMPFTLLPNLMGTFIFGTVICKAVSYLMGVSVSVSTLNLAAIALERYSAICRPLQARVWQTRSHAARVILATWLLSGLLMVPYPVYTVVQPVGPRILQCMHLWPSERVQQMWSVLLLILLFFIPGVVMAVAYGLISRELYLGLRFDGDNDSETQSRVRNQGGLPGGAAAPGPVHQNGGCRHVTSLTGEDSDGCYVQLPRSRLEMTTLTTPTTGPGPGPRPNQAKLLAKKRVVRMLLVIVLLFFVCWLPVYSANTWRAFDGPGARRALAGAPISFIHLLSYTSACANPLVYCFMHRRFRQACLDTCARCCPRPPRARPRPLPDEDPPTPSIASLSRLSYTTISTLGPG
Protocol: The compounds of the examples were tested for binding at the CCKB receptor in mouse cortical membranes by means of a radioligand binding assay. The procedure was as follows:
The whole brains from male mice (CD1 22-25g; Charles River) were removed and placed in ice-cold buffer (pH7.2 @ 21 ± 3°C) of the following composition (mM); 10 HEPES, 130 NaCl, 4.7 KCl, 5 MgCl2, 1 EDTA and containing 0.25g.l^-1 bacitracin. The cortex was dissected, weighed and homogenised in 40ml ice-cold buffer using a Teflon-in-glass homogeniser. The homogenate was centrifuged at 39,800g for 20 min at 4°C, the supernatant discarded and the pellet resuspended by homogenisation in fresh buffer. The homogenate was recentrifuged (39,800g; 20 min @ 4°C) and the final pellet was resuspended in HEPES buffer to give a tissue concentration of 2mg.ml^-1(original wet weight).
The assay was terminated by rapid filtration through pre-soaked Whatman GF/B filters using a Brandell Cell harvester. The filters were washed (3 x 3ml) with ice-cold 50mM Tris-HCl (pH7.4 @ 4°C) and bound radioactivity determined by counting (1 min.) in a gamma-counter.

Ki (CCKA) [nM] | Kb (gastrin) [nM] | Ki (CCKB receptor) [nM] | CCKA pKi (CCKA) | CCKB pKi (CCKB receptor) | Gastrin pKB (gastrin; 60 min) | Molecule
501 | 50.1 | 15.8 |  |  |  | O=C(O)c1cc(NC(=O)[C@H](Cc2ccccc2)NC(=O)C2C3c4ccccc4C(c4ccccc43)C2C(=O)NCC23CC4CC(CC(C4)C2)C3)cc(C(=O)O)c1 (single isomer, unassigned) [Example 2, cis-7-(1S-(3,5-dicarboxyphenylaminocarbonyl) -2-phenylethylaminocarbonyl)-8-(1-adamantanemethylaminocarbonyl)-2,3,5,6-dibenzobicyclo[2.2.2] octane]
 |  |  | 6.8 | 7.3 |  | cis-7-(1S-(3,5-dicarboxyphenylaminocarbonyl) -2-phenylethylaminocarbonyl)-8-(2-thiophenylmethylaminocarbonyl)-2,3,5,6-dibenzobicyclo[2.2.2] octane [Example 52]
 |  |  | 5.7 | 8.6 | 7.9 | cis-7-(1S-(3,5-dicarboxyphenylaminocarbonyl) -2-(2-thiophenyl)-ethylaminocarbonyl) -8-(1-adamantane-methylaminocarbonyl) -2,3,5,6-dibenzobicyclo[2.2.2]octane [Example 6]
1260 |  | 200 |  |  |  | O=C(O)c1ccccc1NC(=O)[C@H](Cc1ccccc1)NC(=O)C1C2c3ccccc3C(c3ccccc32)C1C(=O)NCC12CC3CC(CC(C3)C1)C2 (stereo partly drawn) [Example 45, cis-7-(1S-(2-carboxyphenylaminocarbonyl)-2-phenylethylaminocarbonyl)-8-(1-adamantane-methylaminocarbonyl) -2,3,5,6-dibenzobicyclo[2.2.2]octane]
3980 | 50.1 | 20 |  |  |  | O=C(O)c1cc(NC(=O)[C@H](Cc2ccccc2)NC(=O)C2C3c4ccccc4C(c4ccccc43)C2C(=O)NCC2CCCCC2)cc(C(=O)O)c1 (single isomer, unassigned) [Example 30, cis-7-(1S-(3,5-dicarboxyphenylaminocarbonyl)-2-phenylethylaminocarbonyl)-8-(1-cyclohexanemethylaminocarbonyl)-2,3,5,6-dibenzobicyclo [2.2.2] octane]
1260 |  | 316 |  |  |  | O=C(O)c1cc(NC(=O)[C@H](Cc2ccccc2)NC(=O)C2C3c4ccccc4C(c4ccccc43)C2C(=O)NCc2cccc3ccccc23)cc(C(=O)O)c1 (single isomer, unassigned) [Example 33, cis-7-(1S-(3,5-dicarboxyphenylaminocarbonyl)-2-phenylethylaminocarbonyl)-8-(1-naphthalenemethylaminocarbonyl)-2,3,5,6-dibenzobicyclo[2.2.2]octane]
398 |  | 15.8 |  |  |  | O=C(O)c1cc(NC(=O)[C@H](Cc2ccccc2)NC(=O)C2C3c4ccccc4C(c4ccccc43)C2C(=O)NCCc2c[nH]c3ccccc23)cc(C(=O)O)c1 (single isomer, unassigned) [Example 50, cis-7-(1S-(3,5-dicarboxyphenylaminocarbonyl) -2-phenylethylaminocarbonyl)-8-(3-indolylethylaminocarbonyl)-2,3,5,6-dibenzobicyclo[2.2.2] octane]
 |  |  | 5.8 | 7.5 |  | cls-7-(1S-(3,5-dicarboxyphenylaminocarbonyl) -2-phenylethylaminocarbonyl) -8-(2-phenylpropylaminocarbonyl) -2,3,5,6-dibenzobicyclo[2.2.2]octane [Example 54]
1000 |  | 25.1 |  |  |  | O=C(O)c1cccc(NC(=O)[C@H](Cc2cccs2)NC(=O)C2C3c4ccccc4C(c4ccccc43)C2C(=O)NCC23CC4CC(CC(C4)C2)C3)c1 (single isomer, unassigned) [Example 56]
794 |  | 6.31 |  |  |  | O=C(O)c1cccc(NC(=O)[C@H](Cc2cccs2)NC(=O)C2C3c4ccccc4C(c4ccccc43)C2C(=O)NCC23CC4CC(CC(C4)C2)C3)c1 (single isomer, unassigned) [Example 55, cis-7-(1S-(3-carboxyphenylaminocarbonyl)-2-(2-thiophenyl)ethylaminocarbonyl)-8-(1-adamantanemethylaminocarbonyl)-2,3,5,6-dibenzobicyclo[2.2.2]octane]
1580 |  | 79.4 |  |  |  | O=C(O)c1cc(NC(=O)[C@H](Cc2ccccc2)NC(=O)C2C3c4ccccc4C(c4ccccc43)C2C(=O)NCCc2c[nH]c3ccccc23)cc(C(=O)O)c1 (single isomer, unassigned) [Example 51, cis-7-(1S-(3,5-dicarboxyphenylaminocarbonyl) -2-phenylethylaminocarbonyl)-8-(3-indolylethylaminocarbonyl) -2,3,5,6-dibenzobicyclo [2.2.2]octane]
1260 |  | 3980 |  |  |  | O=C(NCC12CC3CC(CC(C3)C1)C2)C1C2c3ccccc3C(c3ccccc32)C1C(=O)N[C@@H](Cc1ccccc1)C(=O)Nc1ccccc1 (single isomer, unassigned) [Example 22, cis-7-(1S-(phenylaminocarbonyl)-2-phenyl-ethylaminocarbonyl)-8-(1-adamantanemethylaminocarbonyl) -2,3,5,6-dibenzobicyclo[2.2.2]octane]
